Laboratory results taken from US11986532B2 (Arvinas Operations, Inc., priority 2021, dated 2024).

Molecular target: T1, BCL6 (Homo sapiens, UniProt P41182)
T1 construct: endogenous in cells; host or cells: T47D breast cancer epithelial cells
Experiment: Immunofluorescence protocol for high content imaging of BCL6 (degradation) in T47D cells, 3 days compound treatment
Type: cell-based
Conditions: T47D cells, 3 days compound treatment; for DC50: read-out: Mean DC50 (nM)* category; for Dmax: read-out: Mean Dmax (%)** category
Protocol: Immunofluorescence Protocol for High Content Imaging of BCL6
T47D cells were seeded in 100 μl volume of RPMI1640-10% FBS in a 96-well black/clear bottom plates for adherent lines (Corning #3904).
Day 1. T47D breast cancer epithelial cells were seeded at a density so that confluence is ˜70-90% at endpoint. Cells were seeded at 7K/0.1 ml/well the morning prior to the addition of exemplary bifunctional degradation compounds.
Day 2. Prepare an 11 point 3-fold serial dilution of exemplary bifunctional compound in DMSO and aliquot an appropriate volume to cell growth media to generate a 2× final concentration of exemplary bifunctional compound. Add an equal volume (0.1 ml) of 2× exemplary bifunctional compound/media mix to previously plated cells, for a final top concentration in aqueous cell growth media of 0.1 or 1 μM. Incubate for 3 days at 37° C., 5% CO2.
Day 5 Immunofluorescence. Discard cell media. Wash wells with 200 μl of room temperature phosphate-buffered saline (PBS). Prepared 4% paraformaldehyde (PFA) from 16% PFA (Electron Microscopy Sciences #15710) using 1×PBS. Fifty μl of 4% PF was added to each well and incubate for 15 minutes at room temperature to fix the cells. The PFA was aspirated and the cells washed twice with PBS (200 μl)).
Prepared 0.1% Triton X-100 in PBS using 10% triton X-100 stock. The cells were permeabilized by adding 100 ul of the 0.1% Triton X-100 in PBS to each well to permeabilize cells and incubating at room temperature for 15 minutes. Cells were washed twice with PBS.
Prepared 3% BSA/PBS (from Thermofisher #37515 Blocker BSA in TBS, 10%), and 100 ul was added to each well. The cells were incubated for at least 1 hour at room temperature.
Prepared 1% BSA/PBS using Blocker BSA/PBS, and the 3% BSA/PBS removed from the wells.
For no primary antibody controls, 50 μl 1% BSA/PBS was added.
Primary antibody (BCL6 Rb Ab, CST-14895, Cell Signaling) was diluted 1:300 in 1% BSA/PBS using Blocker BSA/PBS.
Fifty μl of primary antibody added to all remaining wells (i.e., all wells other than the primary antibody controls) and the cells were incubated overnight at 4° C. with slow orbital movement.
Day 6. Contents of the wells was removed and the cells washed four times with 200 ul PBS. 1% BSA/PBS was prepared using Blocker BSA in PBS.
Diluted secondary antibody goat anti-Rb IgG Alexa-488 1:1000, and cell mask-Alexa-647 1:3000 in 1% BSA/PBS in the same mix. Add 50 μl to each well and incubate at room temperature for 1 hour in the dark.
Cells were washed three times with 200 ul PBS, and then incubated for 10 minutes with 100 ul Hoechst dye at 1 μg/mL (20 mM stock) to stain cell nuclei. Wells were then washed with 200 μl PBS, and 100 ul of PBS was added to each well and the plate covered plate with a plastic opaque cover. Plates were stored at 4° C. and covered in aluminum foil until imaged.
Plates were equilibrated to room temperature prior to reading. The bottom of the plate was wiped with 70% isopropanol immediately prior to imaging.
10×, 4 fields/well, include Top hat smoothing in the analysis protocol.
16% paraformaldehyde: Electron Microscopy Sciences #15710
Hoechst: Thermofisher #62249
Blocker BSA in PBS, 10%: Thermofisher #37515
Blocker BSA in TBS, 10%: Thermofisher #37520
Goat anti-rabbit or mouse AlexaFluor-488: Thermofisher #A11008
Cell mask deep red AlexaFluor-647: Thermofisher #C10046
Wash buffer, PBS: 20×PBS, Thermofisher

| Structure (SMILES) | DC50 [nM] | Dmax [%] |
| --- | --- | --- |
| CNC(=O)COc1cc2cc(Nc3nc(N4CCC(O[C@H]5C[C@H](N6CC[C@H](c7ccc8c(c7)C(=O)N(C7CCC(=O)NC7=O)C8=O)[C@H](F)C6)C5)CC4)ncc3Cl)ccc2n(C(C)C)c1=O (mixture of isomers) [Compound 118] | 10 to 50 | 50 to 70 |
| CNC(=O)COc1cc2cc(Nc3nc(N4CCC(O[C@H]5C[C@H](N6CC[C@H](c7ccc8c(c7)CN(C7CCC(=O)NC7=O)C8=O)[C@H](F)C6)C5)CC4)ncc3Cl)ccc2n(C(C)C)c1=O (mixture of isomers) [Compound 131] | < 10 | 50 to 70 |
| CNC(=O)COc1cc2cc(Nc3nc(N4CCC(O[C@H]5C[C@H](N6CC[C@H](c7ccc8c(c7)C(=O)N(C7CCC(=O)NC7=O)C8)[C@H](F)C6)C5)CC4)ncc3Cl)ccc2n(C(C)C)c1=O (mixture of isomers) [Compound 132] | < 10 | 50 to 70 |
| CNC(=O)COc1cc2cc(Nc3nc(N4CCC(O[C@H]5C[C@H](N6C[C@@H](C)N(c7ccc8c(c7)CN(C7CCC(=O)NC7=O)C8=O)[C@H](C)C6)C5)CC4)ncc3Cl)ccc2n(C(C)C)c1=O (relative stereo) [Compound 179, 2-({6-[(5-chloro-2-{4-[(1r,3r)-3-[(3R*,5R*)-4-[2-(2,6-dioxopiperidin-3-yl)-1-oxo-2,3-dihydro-1H-isoindol-5-yl]-3,5-dimethylpiperazin-1-yl]cyclobutoxy]piperidin-1-yl}pyrimidin-4-yl)amino]-2-oxo-1-(propan-2-yl)-1,2-dihydroquinolin-3-yl}oxy)-N-methylacetamide] | < 10 | ≥ 70 |
| CNC(=O)COc1cc2cc(Nc3nc(N4CCC(O[C@H]5C[C@H](N6C[C@H](C)N(c7ccc8c(c7)CN(C7CCC(=O)NC7=O)C8=O)[C@@H](C)C6)C5)CC4)ncc3Cl)ccc2n(C(C)C)c1=O (relative stereo) [Compound 180, 2-({6-[(5-chloro-2-{4-[(1r,3r)-3-[(3R*,5R*)-4-[2-(2,6-dioxopiperidin-3-yl)-1-oxo-2,3-dihydro-1H-isoindol-5-yl]-3,5-dimethylpiperazin-1-yl]cyclobutoxy]piperidin-1-yl}pyrimidin-4-yl)amino]-2-ox0-1-(propan-2-yl)-1,2-dihydroquinolin-3-yl}oxy)-N-methylacetamide] | < 10 | ≥ 70 |
| CNC(=O)COc1cc2cc(Nc3nc(N4CCC(OC5CN([C@H]6CC[C@H](c7ccc8c(c7)CN(C7CCC(=O)NC7=O)C8=O)CC6)C5)CC4)ncc3Cl)ccc2n(C(C)C)c1=O (single isomer, unassigned) [Compound 165, 2-((6-((5-chloro-2-(4-((1-((1r,4r)-4-(2-(2,6-dioxopiperidin-3-yl)-1-oxoisoindolin-5-yl)cyclohexyl)azetidin-3-yl)oxy)piperidin-1-yl)pyrimidin-4-yl)amino)-1-isopropyl-2-oxo-1,2-dihydroquinolin-3-yl)oxy)-N-methylacetamide] | < 10 | 50 to 70 |
| CNC(=O)COc1cc2cc(Nc3nc(N4CCC(OC5CN([C@H]6CC[C@@H](c7ccc8c(c7)CN(C7CCC(=O)NC7=O)C8=O)CC6)C5)CC4)ncc3Cl)ccc2n(C(C)C)c1=O (single isomer, unassigned) [Compound 166, 2-[[6-[[5-chloro-2-[4-[1-[4-[2-(2,6-dioxo-3-piperidyl)-1-oxo-isoindolin-5-yl]cyclohexyl]azetidin-3-yl]oxy-1-piperidyl]pyrimidin-4-yl]amino]-1-isopropyl-2-oxo-3-quinolyl]oxy]-N-methyl-acetamide] | < 10 | 50 to 70 |
| CNC(=O)COc1cc2cc(Nc3nc(N4CCC(O[C@H]5C[C@H](N6CCN(c7ccc8c(n7)C(C)N(C7CCC(=O)NC7=O)C8=O)[C@H](C)C6)C5)CC4)ncc3Cl)ccc2n(C(C)C)c1=O (stereo in doubt) [Compound 203, 2-({6-[(5-chloro-2-{4-[(1r,3r)-3-[(3R)-4-[6-(2,6-dioxopiperidin-3-yl)-7-methyl-5-oxo-5H,6H, 7H-pyrrolo[3,4-b]pyridin-2-yl]-3-methylpiperazin-1-yl]cyclobutoxy]piperidin-1-yl}pyrimidin-4-yl)amino]-2-oxo-1-(propan-2-yl)-1,2-dihydroquinolin-3-yl}oxy)-N-methylacetamide] | < 10 | ≥ 70 |
| CNC(=O)COc1cc2cc(Nc3nc(N4CCC(CN5CC[C@]6(CCN(c7ccc8c(c7)CN([C@H]7CCC(=O)NC7=O)C8=O)C6)C5)CC4)ncc3Cl)ccc2n(C(C)C)c1=O [Compound 1, 2-[(6-{[5-chloro-2-(4-{[(5S)-7-{2-[(3S)-2,6-dioxopiperidin-3-yl]-1-oxo-2,3-dihydro-1H-isoindol-5-yl}-2,7-diazaspiro[4.4]nonan-2-yl]methyl}piperidin-1-yl)pyrimidin-4-yl]amino}-2-oxo-1-(propan-2-yl)-1,2-dihydroquinolin-3-yl)oxy]-N-methylacetamide] | < 10 | 50 to 70 |
| CNC(=O)COc1cc2cc(Nc3nc(N4CCC(CN5CC[C@]6(CCN(c7ccc8c(c7)CN([C@@H]7CCC(=O)NC7=O)C8=O)C6)C5)CC4)ncc3Cl)ccc2n(C(C)C)c1=O [Compound 2, 2-[(6-{[5-chloro-2-(4-{[(5S)-7-{2-[(3R)-2,6-dioxopiperidin-3-yl]-1-oxo-2,3-dihydro-1H-isoindol-5-yl}-2,7-diazaspiro[4.4]nonan-2-yl]methyl}piperidin-1-yl)pyrimidin-4-yl]amino}-2-oxo-1-(propan-2-yl)-1,2-dihydroquinolin-3-yl)oxy]-N-methylacetamide] | < 10 | ≥ 70 |
| CNC(=O)COc1cc2cc(Nc3nc(N4CCC5(CCN(CC6CCN(c7ccc8c(c7)CN(C7CCC(=O)NC7=O)C8=O)CC6)C5)C4)ncc3Cl)ccc2n(C(C)C)c1=O (stereo not shown) [Compound 3, 2-{[6-({5-chloro-2-[7-({1-[2-(2,6-dioxopiperidin-3-yl)-1-oxo-2,3-dihydro-1H-isoindol-5-yl]piperidin-4-yl}methyl)-2,7-diazaspiro[4.4]nonan-2-yl]pyrimidin-4-yl}amino)-2-oxo-1-(propan-2-yl)-1,2-dihydroquinolin-3-yl]oxy}-N-methylacetamide] | < 10 | 50 to 70 |
| CNC(=O)COc1cc2cc(Nc3nc(N4CCC5(CCN(CC6CCN(c7ccc8c(c7)C(=O)N(C7CCC(=O)NC7=O)C8=O)CC6)C5)C4)ncc3Cl)ccc2n(C(C)C)c1=O (stereo not shown) [Compound 4, 2-{[6-({5-chloro-2-[7-({1-[2-(2,6-dioxopiperidin-3-yl)-1,3-dioxo-2,3-dihydro-1H-isoindol-5-yl]piperidin-4-yl}methyl)-2,7-diazaspiro[4.4]nonan-2-yl]pyrimidin-4-yl}amino)-2-oxo-1-(propan-2-yl)-1,2-dihydroquinolin-3-yl]oxy}-N-methylacetamide] | 10 to 50 | < 50 |
| CCn1c(=O)c(OCC(=O)NC)cc2cc(Nc3nc(N4CCC(O[C@H]5C[C@H](N6CCC(c7ccc8c(c7)C(=O)N(C7CCC(=O)NC7=O)C8=O)CC6)C5)CC4)ncc3Cl)ccc21 (stereo partly shown) [Compound 5, 2-[[6-[[5-chloro-2-[4-[3-[4-[2-(2,6-dioxo-3-piperidyl)-1,3-dioxo-isoindolin-5-yl]-1-piperidyl]cyclobutoxy]-1-piperidyl]pyrimidin-4-yl]amino]-1-ethyl-2-oxo-3-quinolyl]oxy]-N-methyl-acetamide] | < 10 | ≥ 70 |
| CNC(=O)COc1cc2cc(Nc3nc(N4CCN(CC5CC6(CCN(c7ccc8c(c7)CN(C7CCC(=O)NC7=O)C8=O)CC6)C5)CC4)ncc3Cl)ccc2n(C(C)C)c1=O (stereo not shown) [Compound 6, 2-{[6-({5-chloro-2-[4-({7-[2-(2,6-dioxopiperidin-3-yl)-1-oxo-2,3-dihydro-1H-isoindol-5-yl]-7-azaspiro[3.5]nonan-2-yl}methyl)piperazin-1-yl]pyrimidin-4-yl}amino)-2-oxo-1-(propan-2-yl)-1,2-dihydroquinolin-3-yl]oxy}-N-methylacetamide] | < 10 | 50 to 70 |
